Values of other authors as cited in patent US7160580B2, “Organic acids incorporated edible antimicrobial films” (The Board of Trustees for the University of Arkansas, priority 2002, dated 2007).
“And” between values parts separate entries of the source, which are not always exact repeats. Identical values can stand only once.

Tests used:
Listeria monocytogens [1] = conditions: 2% acid rinsed catfish fillets stored at 4° C., up to 5 days
Listeria monocytogens [2] = conditions: lean beef tissue treated with 1.7% lactic acid, stored at 5° C. for 7 days
E. coli 0157:H7 = conditions: lean beef tissue treated with 1.7% lactic acid, stored at 5° C. for 7 days
Salmonella montevideo = conditions: citric acid 0.2 and 0.4% in cellulose based edible film; surface or core tissue of tomatoes; assignment of the two values not stated

Compound	log reduction in Listeria monocytogens counts (Listeria monocytogens [1])	log reduction Listeria monocytogens (Listeria monocytogens [2]) [log]	log reduction E. coli 0157:H7 (E. coli 0157:H7) [log]	log reductions of Salmonella montevideo (Salmonella montevideo)
O=C(O)C(O)C(O)C(=O)O (centres unmarked) [tartaric acid]	less than one log reduction			
CC(O)C(=O)O (centres unmarked) [lactic acid]	less than one log reduction	2.03	0.91	
O=C(O)CC(O)C(=O)O (centres unmarked) [malic acid]	less than one log reduction			
Cl [hydrochloric acid]	less than one log reduction			
O=C(O)CC(O)(CC(=O)O)C(=O)O [citric acid]	less than one log reduction			2.18 log and 1.92 log
